Entries after “also recorded” stand apart in the source; their conditions may differ.
Tests used:
[1] = test system: senescent cells in cellular systems, mouse models and human clinical samples; assay: Double staining with Ki67, p16INK4A or p21WAF1/Cip1
Procedure: • 1. Compound (LG13) • 2. 100% ethanol (100% EtOH) • 3. Parafilm • 4. Fritted glass filter of medium porosity • 5. Airtight Dye Container 2.2.2 General Procedure: • 1. Dissolve 40 mg of the compound (LG13) in 7.4 ml 100% EtOH in a glass beaker and cover it with parafilm. • 2. Incubate at 56° C. in a waterbath for 120 min until the compound is completely dissolved. 2.3. General Method for Compound (LG13) Staining 2.3.1 Materials: • 1. Xylene • 2. […] Syringe • 4. 13 mm filter, membrane 0.22 μm • 5. Soft paper (dry or dipped in ethanol) • 6. Anti-biotin antibody ([Hyb-8] ab201341, Abcam) • 7. Ultravision Quanto Detection System HRP DAB kit (Cat no: TL-125-QHD) • 8. Glycerol (Sigma-Aldrich) • 9. Tris Buffered Saline (TBS; 10×): 1.5 M NaCl, 0.1 M Tris-HCl, pH 7.4. Store at 4° C. • 10. 0.5% Triton X/TBS: 0.5 ml Triton X diluted in 99.5 ml TBS • 11. Mounting media Glycergel (DakoCytomation). • 12. Light Microscope • 13. Anti-p21^WAF1/Cip1 mouse primary antibody [(F-5)(sc-6246) Santa-Cruz] • 14. Anti-p16^INK4A mouse primary antibody [(sc-74401) Santa-Cruz] • 15. Anti-Ki67 rabbit polyclonal antibody [ab16667, Abcam] • 16. Secondary goat anti-mouse antibody Alexa Fluor 568 conjugated [Thermo Fisher Scientific (Cat no: A-11004)] • 17. DAPI (4′,6-Diamidino-2-Phenylindole, Dihydrochloride) [Thermo Fisher Scientific (Cat no: D1306)] • 18. Fluorescence microscope 2.3.2 General Procedures: 2.3.2.1 General Staining Protocol for Cells Mounted on Coverslips • 1. Wash ×1 in TBS for 5 min at RT. • 2. Block the endogenous hydrogen peroxidase, using the UltraVision Hydrogen Peroxide Block included in the Ultravision Quanto Detection System HRP DAB kit (Cat no: TL-125-QHD) for 10 min at RT and in dark conditions. • 3. Wash ×2 in TBS for 30 sec and ×1 for 5 min at RT. • 4. Wash ×1 in EtOH 50% for 5 min at RT. • 5. Wash ×1 EtOH 70% for 5 min at RT. • 6. […] The staining reaction is monitored under the light microscope until detection of the signal (average time 5-8 min). • 8. […] The staining reaction is monitored under the light microscope until detection of the dark brown signal (average time 30 sec-1 min) at RT 1. • 20. […]

[2] = test system: lipofuscin; assay: Immunofluorescence staining / lipofuscin autofluorescence control; format: cell-based; conditions: fluorescence microscopy, FIG. 9
Procedure: In inventive example 6 the derivative LG13 was used to detect lipofuscin rich cells in cell spreads from cell culture by immunofluorescence staining.
Immunofluorescence staining protocol cellsor ounted on coverslips • 1. Wash ×1 in TBS for 5 min at RT. • 2. Wash ×1 in EtOH 50% for 5 min at RT. • 3. Wash ×1 EtOH 70% for 5 min at RT. • 4. Incubate with the compound (LG13) at RT. A drop of freshly prepared compound (LG13) is placed on a clean slide with the use of a syringe that carrying a 2 mm filter (see also FIG. 1 from Evangelou & Gorgoulis, 2016). Then the cover-slip with the cells is turned down (using thin edged forceps) on the slide and attached on the dye drop in a way that the material faces down the drop on the slide (All incubations were performed in chambers (cover slips) and coplin jars (glass slides) to avoid exsiccation of the material), (see also FIG. 1 from Evangelou & Gorgoulis, 2016). • 5. The staining reaction is monitored under the light microscope until detection of the signal (average time 5-8 min). • 6. Wash ×2 in EtOH 50%. • 7. Repeat washing ×2 in fresh EtOH 50%. • 8. Wash ×2 in TBS for 30 sec and ×1 for 5 min at RT. • 9. Incubate with 0.5% Triton X/TBS for 3 min at RT. • 10. Wash ×1 in TBS for 5 min at RT. • 11. […] Observe under the fluorescence microscope

## CC1(COC(=O)CCCC[C@H]2SC[C@H]3NC(=O)N[C@H]32)Nc2cccc3c(/N=N/c4ccc(/N=N/c5ccccc5)c5ccccc45)ccc(c23)N1 (stereo partly drawn) [LG13, (2-methyl-6-((E)-(4-((E)-phenyldiazenyl)naphthalen-1-yl)diazenyl)-2,3-dihydro-1H-perimidin-2-yl)methyl 5-((3aR,4R,6aS)-2-oxohexahydro-1H-thieno[3,4-d]imidazol-4-yl)pentanoate]
[1]; double staining in cell culture systems and human clinical samples, FIG. 11
  relationship between Ki67 expression and compound staining: Strict inverse relationship
[1]; irradiated DLFs, induced Saos2-p21 Tet-ON, K-rasV12 mouse lung adenoma, irradiated human breast samples, FIG. 12i
  compound staining of senescent cells with nuclear p16INK4A or p21WAF1/Cip1 expression: concurrently positive
[1]; lung sections, mouse bleomycin-induced lung fibrosis, FIG. 12ii
  relationship between nuclear Ki67 positivity and compound staining: strict inverse relationship
[2]
  effect of staining on lipofuscin autofluorescence: quenched; also recorded: “masks” the autofluorescence ability of lipofuscin

— US11034839B2, “Compounds, linked with haptens, for the detection of senescent cells” (THE UNIVERSITY OF MANCHESTER, priority 2016, dated 2021)
